Results: PubChem BioAssay AID248 (DTP/NCI, 2004)
“And” between values parts separate entries of the source, which are not always exact repeats. Equal values may be shown once. Toxic doses and inconclusive results are not listed. No stated cut-off is given here; in the data, active means T/C of 150% or more; inactive means T/C below 125%.

Test system: L1210 leukemia ip in BDF1 mice, survival T/C
Test: NCI In Vivo Anticancer Drug Screen. Data for tumor model L1210 Leukemia (intraperitoneal) in B6D2F1 (BDF1) mice
Details: endpoint: mean survival time, higher = longer survival
Outline: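 Tumor was transplanted into mice, which were then dosed with test compound or vehicle alone. Survival was recorded for each group, and the treated figure was expressed relative to the control figure.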

[1] = dose: 100.0 mg/kg/injection, schedule: Q01DX001 (ip), vehicle: carboxymethylcellulose (CMC)
[2] = dose: 200.0 mg/kg/injection, schedule: Q01DX001 (ip), vehicle: carboxymethylcellulose (CMC)
[3] = dose: 400.0 mg/kg/injection, schedule: Q01DX001 (ip), vehicle: carboxymethylcellulose (CMC)
[4] = dose: 100.0 mg/kg/injection, schedule: Q01DX001 (ip), vehicle: saline
[5] = dose: 200.0 mg/kg/injection, schedule: Q01DX001 (ip), vehicle: saline
[6] = dose: 400.0 mg/kg/injection, schedule: Q01DX001 (ip), vehicle: saline
[7] = dose: 100.0 mg/kg/injection, schedule: Q04DX003 (ip), vehicle: saline with Tween-80
[8] = dose: 200.0 mg/kg/injection, schedule: Q04DX003 (ip), vehicle: saline with Tween-80
[9] = dose: 400.0 mg/kg/injection, schedule: Q04DX003 (ip), vehicle: saline with Tween-80
[10] = dose: 50.0 mg/kg/injection, schedule: Q01DX001 (ip), vehicle: saline
[11] = dose: 100.0 mg/kg/injection, schedule: Q01DX009 (ip), vehicle: saline with Tween-80
[12] = dose: 200.0 mg/kg/injection, schedule: Q01DX009 (ip), vehicle: saline with Tween-80
[13] = dose: 400.0 mg/kg/injection, schedule: Q01DX009 (ip), vehicle: saline with Tween-80
[14] = dose: 50.0 mg/kg/injection, schedule: Q01DX009 (ip), vehicle: saline
[15] = dose: 100.0 mg/kg/injection, schedule: Q01DX009 (ip), vehicle: saline
[16] = dose: 50.0 mg/kg/injection, schedule: Q01DX009 (ip), vehicle: Klucel (hydroxypropylcellulose) (HPC)
[17] = dose: 100.0 mg/kg/injection, schedule: Q01DX009 (ip), vehicle: Klucel (hydroxypropylcellulose) (HPC)
[18] = dose: 200.0 mg/kg/injection, schedule: Q01DX009 (ip), vehicle: Klucel (hydroxypropylcellulose) (HPC)
[19] = dose: 100.0 mg/kg/injection, schedule: Q04DX003 (ip), vehicle: Klucel (hydroxypropylcellulose) (HPC)
[20] = dose: 200.0 mg/kg/injection, schedule: Q04DX003 (ip), vehicle: Klucel (hydroxypropylcellulose) (HPC)
[21] = dose: 400.0 mg/kg/injection, schedule: Q04DX003 (ip), vehicle: Klucel (hydroxypropylcellulose) (HPC)

Measured: T/C

O=C(Nc1cccc2ccccc12)OCCCl
inactive: [1] 93 % of control | [2] 90 % of control | [3] 95 % of control

CCCCCC1OC1CC1OC1CCCCCCCC(=O)OC (stereo not given)
inactive: [4] 109 % of control | [5] 95 % of control | [6] 102 % of control

COc1c2ccc(-c3ccccc3)oc-2cc(=O)c1C
inactive: dose: 100.0 mg/kg/injection, schedule: Q04DX002 (ip), vehicle: Klucel (hydroxypropylcellulose) (HPC) 104 % of control | dose: 200.0 mg/kg/injection, schedule: Q04DX002 (ip), vehicle: Klucel (hydroxypropylcellulose) (HPC) 96 % of control | dose: 400.0 mg/kg/injection, schedule: Q04DX002 (ip), vehicle: Klucel (hydroxypropylcellulose) (HPC) 93 % of control

CCCC/C(=N/Nc1ccc([N+](=O)[O-])cc1[N+](=O)[O-])c1ccc(Cl)cc1
inactive: [4] 98 % of control | [5] 88 % of control | [6] 102 % of control

O=C1CC(CO)CN1CCc1ccccc1 (stereo not given)
inactive: [7] 96 % of control | [8] 94 % of control | [9] 96 % of control

NC(=O)NC1C(c2ccccc2)C1c1ccccc1 (stereo not given)
inactive: [4] 121 % of control | [5] 110 % of control | [6] 93 % of control

CCCCCCCCCC(CCCCCCCC(=O)O)NC(C)=O (stereo not given)
inactive: [10] 97 % of control | [4] 94 % of control | [5] 94 % of control | [6] 94 % of control

COc1cc(C=O)ccc1OCc1ccccc1
inactive: [11] 96 % of control and 93 % of control | [7] 110 % of control | [12] 96 % of control | [8] 94 % of control | [13] 98 % of control and 93 % of control | [9] 100 % of control

CC(=O)OC(C)(C)/C=C/C(=O)[C@](C)(O)[C@H]1[C@H](O)C[C@@]2(C)[C@@H]3CC=C4[C@@H](CC[C@H](O)C4(C)C)[C@]3(CO)C(=O)C[C@]12C
inactive: dose: 0.57 mg/kg/injection, schedule: Q01DX Z (ip), vehicle: saline 106 % of control | dose: 0.86 mg/kg/injection, schedule: Q01DX Z (ip), vehicle: saline 106 % of control | dose: 1.3 mg/kg/injection, schedule: Q01DX Z (ip), vehicle: saline 112 % of control

ClCCN(CCCl)c1ccc(C=Nc2cccc(Cl)c2)cc1
inactive: dose: 50.0 mg/kg/injection, schedule: Q01DX001 (ip), vehicle: carboxymethylcellulose (CMC) 100 % of control | [1] 100 % of control | [2] 105 % of control | [3] 105 % of control

CCN(CC)CCN1C(=O)C(c2ccccc2)C2(CCN(C)CC2)C1=O (stereo not given)
inactive: [4] 101 % of control | [5] 105 % of control | [6] 97 % of control

CCCCCCCC#N
inactive: dose: 100.0 mg/kg/injection, schedule: Q01DX001 (ip), vehicle: saline with Tween-80 92 % of control | dose: 200.0 mg/kg/injection, schedule: Q01DX001 (ip), vehicle: saline with Tween-80 97 % of control | dose: 400.0 mg/kg/injection, schedule: Q01DX001 (ip), vehicle: saline with Tween-80 105 % of control

CCOC(=O)Cc1c(C(=O)OCC)[nH]c(C)c1C(C)=O
inactive: dose: 100.0 mg/kg/injection, schedule: Q01DX001 (ip), vehicle: Klucel (hydroxypropylcellulose) (HPC) 104 % of control | dose: 200.0 mg/kg/injection, schedule: Q01DX001 (ip), vehicle: Klucel (hydroxypropylcellulose) (HPC) 95 % of control | dose: 400.0 mg/kg/injection, schedule: Q01DX001 (ip), vehicle: Klucel (hydroxypropylcellulose) (HPC) 95 % of control

CCC1(c2ccccc2)CN(C)C1=O (stereo not given)
inactive: dose: 25.0 mg/kg/injection, schedule: Q01DX009 (ip), vehicle: saline 103 % of control | dose: 25.0 mg/kg/injection, schedule: Q04DX003 (ip), vehicle: saline 92 % of control | [14] 106 % of control | dose: 50.0 mg/kg/injection, schedule: Q04DX003 (ip), vehicle: saline 97 % of control | [15] 105 % of control | dose: 100.0 mg/kg/injection, schedule: Q04DX003 (ip), vehicle: saline 97 % of control | dose: 200.0 mg/kg/injection, schedule: Q01DX009 (ip), vehicle: saline 102 % of control | dose: 200.0 mg/kg/injection, schedule: Q04DX003 (ip), vehicle: saline 95 % of control | dose: 400.0 mg/kg/injection, schedule: Q01DX009 (ip), vehicle: saline 100 % of control | dose: 400.0 mg/kg/injection, schedule: Q04DX003 (ip), vehicle: saline 92 % of control

O=S(=O)(c1ccccc1)C1CCCC1Cl (stereo not given)
inactive: [4] 104 % of control | [5] 96 % of control | [6] 100 % of control

CC(=O)C1C(=O)N(C)C(=O)N(C)C1=O
inactive: dose: 75.0 mg/kg/injection, schedule: Q01DX001 (ip), vehicle: carboxymethylcellulose (CMC) 97 % of control | dose: 150.0 mg/kg/injection, schedule: Q01DX001 (ip), vehicle: carboxymethylcellulose (CMC) 100 % of control | dose: 300.0 mg/kg/injection, schedule: Q01DX001 (ip), vehicle: carboxymethylcellulose (CMC) 103 % of control

COc1ccc([N+](=O)[O-])cc1NC(=O)Nc1ccc(SC)cc1
inactive: [16] 90 % of control | [17] 89 % of control | [18] 90 % of control and 92 % of control | dose: 400.0 mg/kg/injection, schedule: Q01DX009 (ip), vehicle: Klucel (hydroxypropylcellulose) (HPC) 98 % of control

CCc1ccc2c(c1)Nc1ccccc1S2
inactive: [16] 97 % of control | dose: 50.0 mg/kg/injection, schedule: Q04DX003 (ip), vehicle: Klucel (hydroxypropylcellulose) (HPC) 91 % of control | [17] 97 % of control | [19] 96 % of control | [18] 101 % of control | [20] 97 % of control | [21] 86 % of control

C1#CCCCCCC#CCCCC1
inactive: dose: 37.5 mg/kg/injection, schedule: Q01DX009 (ip), vehicle: acetone 89 % of control | dose: 75.0 mg/kg/injection, schedule: Q01DX001 (ip), vehicle: acetone 91 % of control | dose: 75.0 mg/kg/injection, schedule: Q01DX009 (ip), vehicle: acetone 97 % of control | dose: 150.0 mg/kg/injection, schedule: Q01DX001 (ip), vehicle: acetone 94 % of control | dose: 150.0 mg/kg/injection, schedule: Q01DX009 (ip), vehicle: acetone 98 % of control

O=C(O)CCCc1ccc(Br)cc1
inactive: [7] 96 % of control | [8] 92 % of control | [9] 93 % of control

SCc1ccc(Br)cc1
inactive: [1] 104 % of control | [2] 98 % of control | [3] 104 % of control

CC(C)(CC(=O)NNc1ccccc1)C(=O)O
inactive: [10] 97 % of control | [4] 102 % of control | [5] 100 % of control | [6] 102 % of control

CCOC(=O)C[n+]1ccccc1
inactive: dose: 50.0 mg/kg/injection, schedule: Q01DX009 (ip), vehicle: saline with Tween-80 98 % of control | [14] 96 % of control | [11] 93 % of control | [15] 102 % of control | [12] 91 % of control

CN1CCN(Cc2c(O)ccc3c2OC(C)(C)C2=C3CCCC2)CC1
inactive: [4] 89 % of control | [5] 98 % of control

CSc1ccc(Sc2cccc3c2C(=O)c2c(cccc2Sc2ccc(SC)cc2)C3)cc1
inactive: [11] 90 % of control | [12] 92 % of control | [13] 103 % of control

O=C(CCl)OCCCl
inactive: dose: 25.0 mg/kg/injection, schedule: Q04DX002 (ip), vehicle: saline with Tween-80 95 % of control | dose: 50.0 mg/kg/injection, schedule: Q04DX002 (ip), vehicle: saline with Tween-80 103 % of control | dose: 100.0 mg/kg/injection, schedule: Q04DX002 (ip), vehicle: saline with Tween-80 93 % of control and 95 % of control

COc1cc2c(cc1OC)/C(=N\O)CCCC2
inactive: dose: 100.0 mg/kg/injection, schedule: Q01DX009 (ip), vehicle: saline sonified 97 % of control | [19] 96 % of control | dose: 200.0 mg/kg/injection, schedule: Q01DX009 (ip), vehicle: saline sonified 94 % of control | [20] 94 % of control | dose: 400.0 mg/kg/injection, schedule: Q01DX009 (ip), vehicle: saline sonified 100 % of control | [21] 97 % of control
